Results reported in patent US20090286713A9, “Collagen Receptor I-Domain Binding Modulators” (Biotie Therapies Corporation, priority 2005, published 2009).
pEC50: −log10 of the molar value.

Assays:
[1] = target: T1, CHO cells expressing α2β1 integrin (Homo sapiens, UniProt P05556+P17301); assay: Cell adhesion assay, CHO-α2 cells on collagen type I; type: cell-based, Chinese Hamster; details: for Emax at 100 µM / inhibition at 50 µM: CHO; for pEC50: CHO-α2 cells, collagen type I, read-out: EC50, adhesion
T1 sequence (P17301 1-1181): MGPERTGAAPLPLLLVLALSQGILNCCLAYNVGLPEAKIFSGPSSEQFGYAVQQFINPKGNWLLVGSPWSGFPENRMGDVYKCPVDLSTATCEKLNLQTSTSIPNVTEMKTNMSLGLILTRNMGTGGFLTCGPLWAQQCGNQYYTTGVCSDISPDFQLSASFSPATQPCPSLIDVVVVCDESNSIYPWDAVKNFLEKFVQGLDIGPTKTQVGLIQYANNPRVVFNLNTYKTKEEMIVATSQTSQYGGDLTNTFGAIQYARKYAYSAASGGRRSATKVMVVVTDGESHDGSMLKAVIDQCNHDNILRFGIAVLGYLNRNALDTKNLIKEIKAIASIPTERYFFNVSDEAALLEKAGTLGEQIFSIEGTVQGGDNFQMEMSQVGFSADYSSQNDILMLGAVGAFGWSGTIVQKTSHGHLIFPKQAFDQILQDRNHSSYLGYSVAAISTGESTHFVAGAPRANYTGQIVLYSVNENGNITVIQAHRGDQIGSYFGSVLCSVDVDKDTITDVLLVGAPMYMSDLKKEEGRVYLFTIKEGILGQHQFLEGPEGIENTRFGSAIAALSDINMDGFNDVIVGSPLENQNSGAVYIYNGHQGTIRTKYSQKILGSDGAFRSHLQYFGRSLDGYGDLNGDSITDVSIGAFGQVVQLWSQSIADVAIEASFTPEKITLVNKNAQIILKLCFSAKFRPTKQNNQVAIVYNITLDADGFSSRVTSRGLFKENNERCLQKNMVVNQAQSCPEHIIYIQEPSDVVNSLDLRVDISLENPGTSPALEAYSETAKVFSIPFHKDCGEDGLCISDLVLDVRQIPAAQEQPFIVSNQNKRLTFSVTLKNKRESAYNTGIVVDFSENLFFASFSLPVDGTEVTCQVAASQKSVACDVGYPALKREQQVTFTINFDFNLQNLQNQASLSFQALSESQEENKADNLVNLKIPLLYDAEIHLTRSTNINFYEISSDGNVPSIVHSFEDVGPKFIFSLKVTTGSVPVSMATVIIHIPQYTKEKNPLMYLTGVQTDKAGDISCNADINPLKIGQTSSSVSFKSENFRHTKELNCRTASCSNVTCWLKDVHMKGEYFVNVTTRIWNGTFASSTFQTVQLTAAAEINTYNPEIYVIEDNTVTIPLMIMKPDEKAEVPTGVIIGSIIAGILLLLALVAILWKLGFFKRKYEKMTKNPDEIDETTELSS
Experimental: (§1) Chinese Hamster Ovary (CHO) cell clone expressing wild type α2 integrin was used in cell adhesion assay. Cells were suspended in serum free medium containing 0.1 mg/ml cycloheximide (Sigma) and the compounds were preincubated with the cells prior to transfer to the wells. Cells (150000/well) were allowed to attach on collagen type I coated wells (in the presence and absence of inhibitor compounds) for 2 h at +37° C. and after that non-adherent cells were removed. Fresh serum free medium was added and the living cells were detected using a cell viability kit (Roche) according to the manufacturers protocol.
(§2) For this purpose CHO cells were transfected to express α2β1 integrin on their surface as their only collagen receptor.

α1 I-domain [2] = target: T2, α1 I-domain (Homo sapiens, UniProt P56199); assay: Solid-phase binding assay, α1 I-domain binding to type I collagen; details: FIG. 6B, 7A
T2 construct: corresponding to amino acids 123-338 of the whole α1 integrin; made in house; host or cells: E. coli BL21 (pGEX-4T-3)
T2 sequence (P56199 151-366): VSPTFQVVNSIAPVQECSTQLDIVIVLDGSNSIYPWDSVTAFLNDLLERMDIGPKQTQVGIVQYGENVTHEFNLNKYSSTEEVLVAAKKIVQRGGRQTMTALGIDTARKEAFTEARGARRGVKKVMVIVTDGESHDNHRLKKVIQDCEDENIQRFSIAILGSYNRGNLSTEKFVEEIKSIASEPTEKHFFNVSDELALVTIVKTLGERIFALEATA
Experimental: (§3) Solid-phase binding assay for α1-domains—The coating of a 96-well high binding microtiter plate (Nune) was done by exposure to 0.1 ml of PBS containing 5 μg/cm2 (15 μg/ml) collagens or 20 μg/ml triple-helical peptides overnight at +4° C. Blank wells were coated with 1:1 solution of 0.1 ml Delfia® Diluent II (Wallac) and PBS. Residual protein absorption sites on all wells were blocked with 1:1 solution of 0.1 ml Delfia® Diluent II (Wallac) and PBS. Recombinant proteins (αI-GST) were added to the coated wells at a desired concentration in Delfia® Assay Buffer and incubated for 1 h at room temperature. Europium-labelled anti-GST antibody (Wallac) was then added (typically 1:1000), and the mixture was incubated for 1 h at room temperature. All incubations mentioned above were done in the presence of 2 mM MgCl2. Delfia® enhancement solution (Wallac) was added to each well and the Europium signal was measured by time-resolved fluorometry (Victor2 multilabel counter, Wallac). At least three parallel wells were analyzed. In some cases some what modified solid-phase assay was used and it was performed according Tulla et al, 2001. It uses anti-GST and Europium-labelled protein G instead of Europium-labelled anti-GST antibody.
(§4) The tetracyclic Streptomyces compounds synthesised in Example 1, where screened for inhibition of collagen binding to α1 and α2 I-domains, using the α I-domain assay described in Example 4. […] L3015 could inhibit the binding of both α1I and α2 I-domains to type I and type IV collagen (FIG. 6B).
Furthermore α1I and α2 I-domain binding to collagen I in the presence of lovastatin was tested in the europium-labelled anti-GST assay described in Example 4. Lovastatin is an allosteric inhibitor of leukocyte integrin α I-domains (e.g. αL I-domain), and the binding site of lovastatin represents an optional binding site for possible modulators. […] These biological tests gave further evidence that collagen receptor α I-domains are inhibited by direct blocking of the MIDAS surface by tetracyclic polyketide.

α2 I-domain [3] = target: T3, α2 I-domain (Homo sapiens, UniProt P17301); assay: Solid-phase binding assay, α2 I-domain binding to type I collagen; details: for inhibition of α2 I-domain binding to type I collagen (in words): FIG. 6B, 7A, 8A
T3 construct: corresponded to amino acids 124-339 of the whole α2 integrin; made in house; host or cells: E. coli BL21 (pGEX-2T)
T3 sequence (P17301 153-368): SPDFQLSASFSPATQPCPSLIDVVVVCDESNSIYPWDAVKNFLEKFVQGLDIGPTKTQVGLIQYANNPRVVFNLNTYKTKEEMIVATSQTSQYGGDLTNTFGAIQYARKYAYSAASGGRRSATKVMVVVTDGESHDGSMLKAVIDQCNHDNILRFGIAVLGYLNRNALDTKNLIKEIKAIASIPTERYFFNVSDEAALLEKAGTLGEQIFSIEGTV
Experimental: as §3, §4
Based on the utilization of 3D model other compounds from the polyketide family were tested. The compounds were tested in the europium-labelled anti-GST assay described in Example 4. Tetracyclic polyketides L3007, L3008, and L3009 could inhibit α2 I-domain binding to type I collagen (FIG. 8A).

α2 I-domain [4] = target: T3, α2 I-domain; assay: α2 I-domain binding to RKK-peptide (europium-labelled protein G assay); details: FIG. 7B
Experimental: as §3
RKK-peptides are known to bind to MIDAS of α2 I-domain (Ivaska et al., 1999). […]

α2 I-domain [5] = target: T3, α2 I-domain; assay: Solid-phase binding assay, α2 I-domain binding to type IV collagen; details: FIG. 6B
Experimental: as §3, with “antibody. […]” for “antibody.”

α1 I-domain [6] = target: T2, α1 I-domain; assay: Solid-phase binding assay, α1 I-domain binding to type IV collagen; details: FIG. 6B
Experimental: as §3, with “antibody. […]” for “antibody.”

[7] = tested on: CHO expressing mutated α2β1 integrin (tyrosine 285, leucine 286, leucine 296); assay: Cell adhesion assay with CHO cells expressing mutated α2β1 integrin; type: cell-based, Chinese Hamster; details: data not shown
[8] = target: T4, CHO cells expressing α2β1 integrin (Homo sapiens, UniProt P17301); assay: Cell adhesion assay, CHO-α2 cells on collagen type I; type: cell-based, Chinese Hamster; details: FIG. 10A, 10B
T4 sequence (P17301 1-1181): T1 sequence (P17301 1-1181)
Experimental: as §1, §2

[9] = tested on: platelet aggregation in whole blood; assay: Platelet function analyzer PFA-100 closure time of whole blood; type: cell-based; details: PFA-100, collagen plus epinephrine; FIG. 12
Experimental: Mean and standard deviations were calculated for each treatment.

Compound	Emax at 100 µM [1]	pEC50 [1]	also measured
CN(c1ccc(NC(=O)N2CCNC2=O)cc1)S(=O)(=O)c1cccc(-c2ccc(F)cc2)c1 [Compound 430]	59%	4.85	–
CC[C@H](C)C(=O)O[C@H]1C[C@@H](C)C=C2C=C[C@H](C)[C@H](CC[C@@H]3C[C@@H](O)CC(=O)O3)[C@H]21 [lovastatin, reference compound]	–	–	inhibition of α1 I-domain binding to type I collagen (in words) (α1 I-domain [2]): no effect; inhibition of α2 I-domain binding to type I collagen (in words) (α2 I-domain [3]): no effect
CN(C)CCN(c1ccc(N(C)C)cc1)S(=O)(=O)c1cccc(-c2ccc(F)cc2)c1 [Compound 354]	89%	4.54	–
N#Cc1ccc(NS(=O)(=O)c2cccc(-c3ccc(F)cc3)c2)cc1 [Compound 448]	74%	4.42	–
O=S(=O)(Nc1cccc(-c2ccc(F)cc2)c1)c1ccc(Cl)cc1 [Compound 398]	–	4.80	inhibition at 50 µM [1]: 83%
CCc1cc(O)c2c(O)c3c(cc2c1C(=O)OC)C(=O)c1cccc(O)c1C3=O [Compound L3015, methyl 2-ethyl-4,5,7-trihydroxy-6,11 dioxonaphthacenecarboxylate]	–	–	displacement of RKK peptide at MIDAS (α2 I-domain [4]): can displace; inhibition of α1 I-domain binding to type I collagen (in words) (α1 I-domain [2]): could inhibit; inhibition of α2 I-domain binding to type IV collagen (in words) (α2 I-domain [5]): could inhibit; inhibition of α2 I-domain binding to type I collagen (in words) (α2 I-domain [3]): could inhibit; inhibition at 30 µM (α2 I-domain [3]; at 0.03 mM concentration, dose dependent, FIG. 6A): ~50%; inhibition of α1 I-domain binding to type IV collagen (in words) (α1 I-domain [6]): could inhibit
O=S(=O)(Nc1cccc(-c2ccc(F)cc2)c1)c1ccc(Cl)cc1Cl [Compound 403]	86%	4.43	–
O=C(c1ccccc1)c1ccc([N-]S(=O)(=O)c2cccc(-c3ccc(F)cc3)c2)cc1.[Na+] [Compound 434]	–	5.04	effect of mutation of tyrosine 285, leucine 286, leucine 296 on the inhibitory effect in adhesion of CHO cells expressing α2β1 to collagen I [7]: significantly decreased; Emax at 100 µM ([1]; at 100 uM): 78%; inhibition of cell adhesion to collagen type I (in words) [8]: potent inhibitor; closure time of the blood [9]: increase the closure time
CN(C)c1ccc(N(CCn2ccnc2)S(=O)(=O)c2cccc(-c3ccc(F)cc3)c2)cc1 [Compound 358]	74%	4.52	–
Cn1cccc1C(=O)Nc1ccc(NS(=O)(=O)c2cccc(-c3ccc(F)cc3)c2)cc1 [Compound 442]	22%	–	–
O=[N+]([O-])c1ccc(NS(=O)(=O)c2cccc(-c3ccc(F)cc3)c2)cc1 [Compound 440]	78%	5.06	–
O=C(c1ccccc1)c1ccc(NS(=O)(=O)c2cccc(-c3ccc(F)cc3)c2)cc1 [Compound 384]	81%	4.92	–
CC(=O)c1ccc(NS(=O)(=O)c2cccc(-c3ccc(F)cc3)c2)cc1 [Compound 383]	–	4.41	–
CN(C)c1ccc(N(CCO)S(=O)(=O)c2cccc(-c3ccc(F)cc3)c2)cc1 [Compound 359]	67%	4.41	–
O=C(c1ccccc1)c1ccc(NS(=O)(=O)c2ccc(Cl)cc2Cl)cc1 [Compound 416]	79%	4.38	inhibition at 50 µM [1]: 44%
O=C(c1ccccc1)c1cccc(NS(=O)(=O)c2cccc(-c3ccc(F)cc3)c2)c1 [Compound 432]	79%	4.82	–
CCc1cc(O)c2c(O)c3c(c(O)c2c1C(=O)OC)C(=O)c1cccc(O)c1C3=O [Compound L3008, methyl 2-ethyl-4,5,7,12-tetrahydroxy-6,11-dioxonaphthacenecarboxylate]	–	–	effect of mutation of tyrosine 285, leucine 286, leucine 296 on the inhibitory effect in adhesion of CHO cells expressing α2β1 to collagen I [7]: significantly decreased; inhibition of α2 I-domain binding to type I collagen (in words) (α2 I-domain [3]): could inhibit
methyl 2-ethyl-2,5,7,12-tetrahydroxy-4,6,11-trioxo-1,2,3-trihydronaphthacene-carboxylate [Compound L3007]	–	–	inhibition of α2 I-domain binding to type I collagen (in words) (α2 I-domain [3]): could inhibit
